Measurements taken from ChEMBL document CHEMBL1201862, “PubChem BioAssay data set” (2004).
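Where inhibition never reached the appropriate level, the endpoint shown equals the highest concentration tested. Otherwise, values were interpolated linearly from a five-concentration, 48-hour dose response in 96-well plates. GI50 is the concentration that inhibits growth by half.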 Active and inactive are the calls of the source. No stated cut-off is given here; in the data, active = GI50 up to about 1.1 µM and inactive = higher.

Key:
Test in all cases: NCI-60 cell line screen, 48 h
[1] = tested on: OVCAR-5
[2] = tested on: SK-MEL-28
[3] = tested on: SF-539
[4] = tested on: SNB-19
[5] = tested on: TK-10
[6] = tested on: SN12C
[7] = tested on: SW-620
[8] = tested on: SK-MEL-2
[9] = tested on: HOP-62
[10] = tested on: CAKI-1
[11] = tested on: MDA-MB-231
[12] = tested on: NCI-H460
[13] = tested on: OVCAR-8
[14] = tested on: UACC-257
[15] = tested on: MDA-N
[16] = tested on: Hs-578T
[17] = tested on: BT-549
[18] = tested on: SK-OV-3
[19] = tested on: LOX IMVI
[20] = tested on: SF-295

Row | SMILES | GI50 [1] | GI50 [2] | GI50 [3] | GI50 [4] | GI50 [5] | GI50 [6] | GI50 [7] | GI50 [8] | GI50 [9] | GI50 [10] | GI50 [11] | GI50 [12] | GI50 [13] | GI50 [14] | GI50 [15] | GI50 [16] | GI50 [17] | GI50 [18] | GI50 [19] | GI50 [20]
1 | CC(=O)Oc1ccc2c(C)cc(=O)oc2c1 | > 100 µM (inactive) | > 100 µM (inactive) | > 100 µM (inactive) | > 100 µM (inactive) | > 100 µM (inactive) | > 100 µM (inactive) | > 100 µM (inactive) | > 100 µM (inactive) | > 100 µM (inactive) | > 100 µM (inactive) | > 100 µM (inactive) | > 100 µM (inactive) | > 100 µM (inactive) | > 100 µM (inactive) | > 100 µM (inactive) | > 100 µM (inactive) | > 100 µM (inactive) | > 100 µM (inactive) | > 100 µM (inactive) | > 100 µM (inactive)
2 | CCC(C)(C)c1ccc(Oc2cccc(C(=O)O)c2)cc1 | > 100 µM (inactive) | 81.8 µM (inactive) | 33.5 µM (inactive) | 85.5 µM (inactive) | > 100 µM (inactive) | 56.4 µM (inactive) | 53 µM (inactive) | 45.2 µM (inactive) | 64.7 µM (inactive) | 65.6 µM (inactive) | > 100 µM (inactive) | 44.4 µM (inactive) | 69.7 µM (inactive) | > 100 µM (inactive) | 47.6 µM (inactive) | 44 µM (inactive) | 66.7 µM (inactive) | 72.1 µM (inactive) | 50.4 µM (inactive) | 38.3 µM (inactive)
3 | O=C/C(=C(/Br)I)c1ccccc1 | 9.86 µM (inactive) | 1.63 µM (inactive) | 2.53 µM (inactive) | 13.6 µM (inactive) | 6.12 µM (inactive) | 1.9 µM (inactive) | 1.15 µM (inactive) | 3.42 µM (inactive) | 15.7 µM (inactive) | 2.14 µM (inactive) | 2.56 µM (inactive) | 8.99 µM (inactive) | 2.83 µM (inactive) | 5.69 µM (inactive) | 2.54 µM (inactive) | 9.59 µM (inactive) | 2.42 µM (inactive) | 14.5 µM (inactive) | 3.81 µM (inactive) | 5.77 µM (inactive)
4 | CSc1ncnc2c1ncn2C1CC(Oc2ccc(C)cc2)C(COc2ccc(C)cc2)O1 (stereo not given) | > 100 µM (inactive) | > 100 µM (inactive) | > 100 µM (inactive) | > 100 µM (inactive) | > 100 µM (inactive) | > 100 µM (inactive) | > 100 µM (inactive) | > 100 µM (inactive) | > 100 µM (inactive) | 24.7 µM (inactive) | > 100 µM (inactive) | > 100 µM (inactive) | > 100 µM (inactive) | > 100 µM (inactive) | > 100 µM (inactive) | > 100 µM (inactive) | > 100 µM (inactive) | > 100 µM (inactive) | > 100 µM (inactive) | > 100 µM (inactive)
5 | COc1ccc(P2(=S)Oc3ccc(C(c4ccccc4)(c4ccccc4)c4ccccc4)cc3O2)cc1 (stereo not given) | 19.5 µM (inactive) | 19.7 µM (inactive) | 19.9 µM (inactive) | 16 µM (inactive) | 19.1 µM (inactive) | 17.9 µM (inactive) | 19.6 µM (inactive) | 20.5 µM (inactive) | 24.6 µM (inactive) | 19.1 µM (inactive) | 21.2 µM (inactive) | 18.6 µM (inactive) | 16 µM (inactive) | 19.2 µM (inactive) | 18.5 µM (inactive) | 21.8 µM (inactive) | 24.9 µM (inactive) | 23 µM (inactive) | 14.5 µM (inactive) | 18.1 µM (inactive)
6 | COCC12CCC(OC)C34C5CC6(O)C(OC)C=C(C5C6OC(=O)c5ccccc5)C(C(OC)C13)C4N(C)C2 (stereo not given) | > 100 µM (inactive) | > 100 µM (inactive) | > 100 µM (inactive) | > 100 µM (inactive) | > 100 µM (inactive) | > 100 µM (inactive) | > 100 µM (inactive) | > 100 µM (inactive) | > 100 µM (inactive) | > 100 µM (inactive) | > 100 µM (inactive) | > 100 µM (inactive) | > 100 µM (inactive) | > 100 µM (inactive) | > 100 µM (inactive) | 27.1 µM (inactive) | > 100 µM (inactive) | > 100 µM (inactive) | > 100 µM (inactive) | > 100 µM (inactive)
7 | CCOC(=O)[C@@H](Cc1ccc(CCl)cc1)NC(C)=O | 20.6 µM (inactive) | 27.5 µM (inactive) | 18.3 µM (inactive) | 27.2 µM (inactive) | 4.71 µM (inactive) | 24 µM (inactive) | 31 µM (inactive) | 17.1 µM (inactive) | 23.9 µM (inactive) | 25.6 µM (inactive) | 27.1 µM (inactive) | 19 µM (inactive) | 50.8 µM (inactive) | 17.2 µM (inactive) | 19 µM (inactive) | 25.5 µM (inactive) | 31.1 µM (inactive) | 98.2 µM (inactive) | 19 µM (inactive) | 32.8 µM (inactive)
8 | O=C(c1ccccc1)C1N=NCC1c1ccc([N+](=O)[O-])cc1 (stereo not given) | > 100 µM (inactive) | 61.5 µM (inactive) | 58.3 µM (inactive) | 54.8 µM (inactive) | 34 µM (inactive) | > 100 µM (inactive) | > 100 µM (inactive) | 46.9 µM (inactive) | > 100 µM (inactive) | 15 µM (inactive) | > 100 µM (inactive) | 38.1 µM (inactive) | 42.8 µM (inactive) | 27 µM (inactive) | 29.6 µM (inactive) | 34.8 µM (inactive) | 24.2 µM (inactive) | > 100 µM (inactive) | 36.6 µM (inactive) | > 100 µM (inactive)
9 | CCC(CCCN)Nc1cc(OC)cc2cccnc12 (stereo not given) | > 100 µM (inactive) | > 100 µM (inactive) | > 100 µM (inactive) | > 100 µM (inactive) | > 100 µM (inactive) | > 100 µM (inactive) | > 100 µM (inactive) | > 100 µM (inactive) | > 100 µM (inactive) | > 100 µM (inactive) | 53.5 µM (inactive) | > 100 µM (inactive) | > 100 µM (inactive) | 15.5 µM (inactive) | > 100 µM (inactive) | > 100 µM (inactive) | > 100 µM (inactive) | > 100 µM (inactive) | > 100 µM (inactive) | > 100 µM (inactive)
10 | O=C(CC1(O)C(=O)Nc2c(Cl)cc(Cl)cc21)c1cccc([N+](=O)[O-])c1 (stereo not given) | 55.7 µM (inactive) | 32.9 µM (inactive) | 27.9 µM (inactive) | > 73.1 µM (inactive) | > 55.8 µM (inactive) | 24.7 µM (inactive) | 20.1 µM (inactive) | 34.3 µM (inactive) | 50.6 µM (inactive) | 32.6 µM (inactive) | 29.9 µM (inactive) | 39.9 µM (inactive) | 29.9 µM (inactive) | 16 µM (inactive) | 18.9 µM (inactive) | 30.6 µM (inactive) | 61 µM (inactive) | 38.6 µM (inactive) | 17 µM (inactive) | 31 µM (inactive)
11 | COC(=O)c1nc2n(n1)-c1ccccc1C(=O)N(Cc1ccccc1)C2 | > 100 µM (inactive) | > 100 µM (inactive) | > 100 µM (inactive) | > 100 µM (inactive) | > 100 µM (inactive) | > 100 µM (inactive) | > 100 µM (inactive) | > 100 µM (inactive) | > 100 µM (inactive) | > 100 µM (inactive) | > 100 µM (inactive) | > 100 µM (inactive) | > 100 µM (inactive) | > 100 µM (inactive) | > 100 µM (inactive) | > 100 µM (inactive) | > 100 µM (inactive) | > 100 µM (inactive) | > 100 µM (inactive) | > 100 µM (inactive)
12 | N#Cc1c(O)nc2[nH]nc(/N=N\c3c(O)ccc4ccccc34)c2c1-c1ccc(Cl)cc1 | 0.834 µM (active) | 0.311 µM (active) | 0.29 µM (active) | 0.211 µM (active) | 0.108 µM (active) | 0.391 µM (active) | 0.163 µM (active) | 0.202 µM (active) | 0.164 µM (active) | 0.282 µM (active) | 0.23 µM (active) | 0.0792 µM (active) | 0.233 µM (active) | 0.851 µM (active) | 0.637 µM (active) | 0.968 µM (active) | 0.0826 µM (active) | 0.187 µM (active) | 0.057 µM (active) | 0.24 µM (active)
13 | CCN(CC)C(=S)SS(=O)(=O)c1ccccc1[N+](=O)[O-] | > 50.4 µM (inactive) | 18.7 µM (inactive) | 19.9 µM (inactive) | > 53.7 µM (inactive) | 31.9 µM (inactive) | 22 µM (inactive) | 20.9 µM (inactive) | > 76.7 µM (inactive) | 22 µM (inactive) | 22.3 µM (inactive) | 18.1 µM (inactive) | 25.1 µM (inactive) | 22.9 µM (inactive) | 36.8 µM (inactive) | 38.9 µM (inactive) | 31.1 µM (inactive) | > 51.2 µM (inactive) | > 71.4 µM (inactive) | 17.3 µM (inactive) | 31.8 µM (inactive)
14 | CC(C)=CCNc1ncnc2[nH]cnc12 | > 100 µM (inactive) | > 100 µM (inactive) | > 100 µM (inactive) | > 100 µM (inactive) | > 100 µM (inactive) | > 100 µM (inactive) | > 100 µM (inactive) | > 100 µM (inactive) | > 100 µM (inactive) | > 100 µM (inactive) | > 100 µM (inactive) | > 100 µM (inactive) | > 100 µM (inactive) | 37.1 µM (inactive) | > 100 µM (inactive) | > 100 µM (inactive) | > 100 µM (inactive) | > 100 µM (inactive) | > 100 µM (inactive) | > 100 µM (inactive)
